This test addresses T1, Fibrinogen (FB) (Bos taurus, UniProt P02672+P02676+P12799).
T1 sequence (P02672 20-615): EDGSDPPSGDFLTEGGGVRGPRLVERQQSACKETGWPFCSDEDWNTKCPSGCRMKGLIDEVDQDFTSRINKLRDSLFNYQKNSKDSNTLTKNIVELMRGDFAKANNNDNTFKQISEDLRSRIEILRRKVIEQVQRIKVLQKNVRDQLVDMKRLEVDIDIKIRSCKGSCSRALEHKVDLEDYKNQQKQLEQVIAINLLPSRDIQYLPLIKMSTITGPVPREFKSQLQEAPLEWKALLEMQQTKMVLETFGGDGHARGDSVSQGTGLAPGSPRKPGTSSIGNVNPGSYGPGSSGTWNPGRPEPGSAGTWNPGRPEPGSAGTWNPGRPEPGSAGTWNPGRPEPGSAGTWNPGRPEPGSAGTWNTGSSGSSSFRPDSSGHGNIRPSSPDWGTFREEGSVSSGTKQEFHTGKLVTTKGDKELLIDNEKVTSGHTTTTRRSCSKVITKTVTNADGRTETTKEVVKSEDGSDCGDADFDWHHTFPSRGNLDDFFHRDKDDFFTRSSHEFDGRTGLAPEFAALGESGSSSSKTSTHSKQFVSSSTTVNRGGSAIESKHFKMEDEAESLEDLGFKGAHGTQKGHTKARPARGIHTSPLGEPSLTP
T1 sequence (P02676 1-468): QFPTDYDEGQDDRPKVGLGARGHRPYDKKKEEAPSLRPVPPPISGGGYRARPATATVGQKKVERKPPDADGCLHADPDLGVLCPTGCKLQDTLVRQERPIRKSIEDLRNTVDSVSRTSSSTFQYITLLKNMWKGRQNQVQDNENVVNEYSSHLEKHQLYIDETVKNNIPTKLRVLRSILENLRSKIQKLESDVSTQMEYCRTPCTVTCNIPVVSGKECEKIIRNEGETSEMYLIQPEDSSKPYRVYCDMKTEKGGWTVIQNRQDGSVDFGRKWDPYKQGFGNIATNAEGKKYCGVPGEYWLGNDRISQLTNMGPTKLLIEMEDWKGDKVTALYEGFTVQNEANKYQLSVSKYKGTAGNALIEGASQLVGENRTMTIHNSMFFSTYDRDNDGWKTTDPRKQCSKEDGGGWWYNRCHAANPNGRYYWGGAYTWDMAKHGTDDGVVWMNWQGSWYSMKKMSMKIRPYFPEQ
T1 sequence (P12799 25-444): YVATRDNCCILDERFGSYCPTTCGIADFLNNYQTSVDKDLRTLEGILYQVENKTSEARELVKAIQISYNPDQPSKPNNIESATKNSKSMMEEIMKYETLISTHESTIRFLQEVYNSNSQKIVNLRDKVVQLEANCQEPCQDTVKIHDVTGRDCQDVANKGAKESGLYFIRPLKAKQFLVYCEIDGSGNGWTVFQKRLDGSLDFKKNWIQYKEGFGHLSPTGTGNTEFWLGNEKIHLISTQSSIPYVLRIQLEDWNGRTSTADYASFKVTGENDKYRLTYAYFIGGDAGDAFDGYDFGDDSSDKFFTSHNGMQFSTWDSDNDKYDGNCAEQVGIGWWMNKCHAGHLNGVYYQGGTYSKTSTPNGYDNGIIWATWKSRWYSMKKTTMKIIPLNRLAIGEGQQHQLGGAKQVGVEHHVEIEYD
Briefly: intrinsic fluorescence quenching titration. The class given is binding.

Counter-ions that a name gives are not always drawn.

The term Kd denotes the free concentration of one partner at which half of the binding sites on the other are occupied at equilibrium, for simple one-to-one binding. A higher Kd goes with lower affinity. In the case of `CC(C)(C)NC[C@H](O)COc1nsnc1N1CCOCC1` [TM, Timolol maleate], the Kd was 1650 µM.

Source of the values: publication PMC12391474 (Scientific Reports, 2025).
